The target in data set [1] is T1, Shaker voltage-gated potassium channel (Drosophila melanogaster, UniProt P08510). The note with it: cited from earlier work; for δ ± s.d. (electric fraction): pH 7.4, reported previously ref 35; for IC50: pH 7.4, Hermann equation, reported previously ref 35, read-out: IC50 (at V=0) ± s.d.
For data set [2] the following is noted: cited from earlier work.
In a further data set the target is CYP2E1 (Homo sapiens, UniProt P05181). Description: competitive CYP2E1 inhibition assay (Vivid CYP2E1 screening kit). The protocol: The relative metabolic stability towards CYP2E1 was assessed with the competitive CYP2E1 inhibition assay utilizing the life technologies™ vivid® CYP2E1 screening kit, as described in previous studies. In this assay, fluorescence emitted by the metabolic product of a specific CYP2E1 substrate included in the kit, was measured in the absence and presence of substrate competitors.
Afterwards, 50 µL master pre-mix 2× (40 nM) CYP2E1 BACULOSOMES® and 2× (0.6 units/mL) vivid® regeneration system in 1× reaction buffer) was added to each well. The plate was incubated for 10 min at room temperature to allow the compounds to interact with the CYP2E1 in the absence of enzyme turnover. Next, the reaction was initiated by adding 10 µL per well of 10× (100 μM) Vivid® substrate (2H-1-benzopyran-3-carbonitrile,7-(ethoxy-methoxy)-2-oxo-(9Cl)) and 10× (300 μM) Vivid® NADP^+ mixture. Immediately (in less than 2 min), the plate was transferred into the fluorescent plate reader and fluorescence was monitored over 60 min (reads in 1 min intervals) at 415 nm as excitation wavelength and 460 nm as emission wavelength. The obtained reads were plotted using GraphPad Prism 9.
A similar vivid® CYP2E1 assay was conducted as described above. […] The plate fluorescence was monitored over 60 min (reads in 1 min intervals) at 415 nm as excitation wavelength and 460 nm as emission wavelength. The reads at 60 min (recalculated by the linear trend line equation) of each concentration were used and fitted with GraphPad Prism9 dose-response-inhibition (concentration is log) curve fitting with weighting method (weighted by 1/Y^2) to calculate the IC50 values. A similar procedure was used for determining the IC50 of 3F4AP.

For data set [3], the target named is T1, Shaker voltage-gated potassium channel. Description: cut-open voltage clamp electrophysiology of K+ currents in Xenopus laevis oocytes expressing Shaker. It counts as cell-based, D. melanogaster. The protocol: Blocking potency of 5Me3F4AP was evaluated on the voltage-gated Shaker (homologous to mammalian Kv1.2) ion channel expressed in Xenopus laevis oocytes, as previously described. Briefly, each oocyte expressing the Shaker channel was voltage-clamped in a cut-open voltage clamp (COVC) station in order to elicit K^+ currents in response to the voltage stimulus protocol, which entailed steps of 50 ms from − 100 to 60 mV in increments of 10 mV. For COVC measurements, the external recording solution was composed (in mM) of 12 KOH, 2 Ca(OH)2, 105 NMDG-MES (N-methyl-D-glucamine)-methylsufonate, 20 HEPES (4-(2-hydroxyethyl)-1-piperazineethanesulfonic acid). The internal recording solution was composed of 120 KOH, 2 EGTA (ethylene glycol-bis(β-aminoethyl ether)-N,N,N,N-tetraacetic acid), and 20 HEPES. […] Each pH solution was adjusted with MES (2-(N-morpholino)ethanesulfonic acid). For measurements at pH = 9.1, HEPES was substituted by CHES (2-(cyclohexylamino)-ethanesulfonic acid). Each oocyte expressing the Shaker ion channel was voltage-clamped to record K^+ currents, first in the absence of 5Me3F4AP, and subsequently with the addition of 5Me3F4AP, from 0.0001 to 10 mM. Relative current (Irel) was quantified as the […] of the indicated concentration of 5Me3F4AP. Finally, K^+ currents were amplified with the oocyte clamp amplifier CA-1A (Dagan Corporation, Minneapolis, MN, USA) and digitized with the USB-1604-HS-2AO Multifunction Card (Measurement Computing, Norton, MA, USA). All systems were controlled with the GpatchMC64 program (department of anesthesiology, UCLA, Los Angeles, CA, USA) via a PC. Electrophysiology recordings were sampled at 100 kHz and filtered at 10 kHz.
Data analysis was performed as previously described. Briefly, the half-maximal inhibitory concentration of 5Me3F4AP (IC50) was determined by fitting the Irel curve to the Hill equation at each value of V and pH.
Mean values of data ± standard deviation (s.d.) are given or plotted and the number of experiments is denoted by n. Upper and lower limits of the 95% of confidence interval (CI95) are denoted as 10^logIC50+s.d and 10^logIC50-s.d , respectively.

Data set [4] is described as follows: pKa determination by titration with HCl (Gran plot). It counts as physicochemical. The note with it: n = 4. The protocol:
The pKa was determined using titration according to our previously described protocol. A 1 mg/mL solution of 5Me3F4AP was prepared, of which 5 ml was titrated with 0.01 M HCl solution beyond the equivalence point. After each incremental addition of titrant, the sample was stirred and the pH reading was taken with a pH meter. The Gran plot of the titration was analyzed to obtain the pKa (see the plot in Supporting Information, Fig. S3). […] The titration was repeated four times each for each compound.

Details of data set [5]: method as in PMID 33090071. The note with it: monkeys, 2 h post injection ref 26; cited from earlier work.
The conditions of data set [6]: cited from earlier work. This is another data set of the same source.
The conditions of data set [7]: cited from earlier work. This is another data set of the same source.
On the set-up of data set [8]: method as in PMID 38690718. The note with it: 35 min post-injection, cited from earlier work.
Data set [9] can be described thus: parallel artificial membrane permeability assay-blood-brain barrier (BBB) kit. It is filed as in vitro ADME. The note with it: PAMPA-BBB; for Papp at 18 h, 500 µM: PBS pH 7.2, 18 h, n = 3, read-out: permeability to an artificial brain membrane (Pe). The protocol: The permeability rates of 5Me3F4AP and derivatives were determined using parallel artificial membrane permeability assay-blood–brain barrier (BBB) kit (BioAssay systems, Hayward, USA) following the manufacturer’s protocol. Initially, solutions of each test compound were prepared in DMSO at a concentration of 10 mM. These stock solutions along with the stock solutions of control compounds (high control: promazine hydrochloride, low control: diclofenac) were then diluted with PBS (pH = 7.2) to obtain the donor solutions with a final concentration of 500 μM. At the same time, 200 μM of equilibrium standards for each compound and a DMSO blank control solution were prepared.
In the experimental setup, 300 μL of PBS was added to the desired well of the acceptor plate, and 5 μL of BBB lipid solution in dodecane was added to membranes of the donor plate. Next, 200 μL of the donor solutions of each test compound and each permeability control were added to the duplicate wells of the donor plate. The donor plate was carefully placed on the acceptor plate and incubator for 18 h at room temperature. After incubation, UV absorption measurements were conducted using 100 μL of the resulting solutions from the acceptor plate and the equilibrium standards. UV absorption of the controls was measured by running a UV scan in the range of 200–500 nm. UV absorption of 5Me3F4AP and derivatives was measured using HPLC equipped with a UV detector and C18 column.
For orientation: In PAMPA a lipid-coated filter parts donor from acceptor wells.

The nature of data set [10]: octanol-water partition coefficient (logD) at pH 7.4. It counts as physicochemical. The protocol: The octanol–water partition coefficient (logD) at pH 7.4 was determined according to our previous reported protocol. Briefly, PBS (900 μL), 1-octanol (900 μL), and a 10 mg/ mL aqueous solution of each compound (2 μL) were added to a 2 mL HPLC vial. The compounds were partitioned between the layers via vortexing and centrifuged at 1000 g for 1 min to allow for phase separation. A 10 μL portion was taken from each layer (autoinjector was set up to draw volume at two different heights) and analyzed by HPLC. The relative concentration in each phase was determined by integrating the area under each peak and comparing the ratio of the areas from the octanol and aqueous layers. A calibration curve was performed to ensure that the concentrations detected were within the linear range of the detector (see Figs. S1 and S2 in Supporting Information). This procedure was repeated four times for each compound.

Where [11] appears, read: final concentration 25 µM, 60 min kinetic measurement.
The mark [12] stands for this setting: compound solution titrated with 0.01 M HCl.

The values that follow come from publication PMC11096398, “Chemical and biophysical characterization of novel potassium channel blocker 3-fluoro-5-methylpyridin-4-amine” (Scientific Reports, 2024).

Values joined by “and” are separate entries in the source; they are usually repeats but may differ in a detail not shown here. Equal values may be shown once. Read-outs that look alike come from different tables or passages of the source. Bounds are passed on as bounds.

Sequence of CYP2E1 (P05181 whole entry): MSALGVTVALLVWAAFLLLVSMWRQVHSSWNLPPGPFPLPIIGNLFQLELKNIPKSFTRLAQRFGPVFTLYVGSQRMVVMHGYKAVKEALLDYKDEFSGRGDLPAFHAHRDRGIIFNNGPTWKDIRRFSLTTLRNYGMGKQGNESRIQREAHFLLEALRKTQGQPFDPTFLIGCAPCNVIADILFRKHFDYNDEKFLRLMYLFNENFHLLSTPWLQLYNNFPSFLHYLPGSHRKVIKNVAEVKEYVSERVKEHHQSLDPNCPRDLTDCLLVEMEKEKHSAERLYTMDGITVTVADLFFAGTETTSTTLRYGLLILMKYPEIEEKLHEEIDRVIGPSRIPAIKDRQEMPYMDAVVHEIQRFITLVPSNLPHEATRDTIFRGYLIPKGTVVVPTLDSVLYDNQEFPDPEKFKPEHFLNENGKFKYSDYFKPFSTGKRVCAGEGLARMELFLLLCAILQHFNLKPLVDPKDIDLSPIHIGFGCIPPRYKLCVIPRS
T1 sequence (P08510 whole entry): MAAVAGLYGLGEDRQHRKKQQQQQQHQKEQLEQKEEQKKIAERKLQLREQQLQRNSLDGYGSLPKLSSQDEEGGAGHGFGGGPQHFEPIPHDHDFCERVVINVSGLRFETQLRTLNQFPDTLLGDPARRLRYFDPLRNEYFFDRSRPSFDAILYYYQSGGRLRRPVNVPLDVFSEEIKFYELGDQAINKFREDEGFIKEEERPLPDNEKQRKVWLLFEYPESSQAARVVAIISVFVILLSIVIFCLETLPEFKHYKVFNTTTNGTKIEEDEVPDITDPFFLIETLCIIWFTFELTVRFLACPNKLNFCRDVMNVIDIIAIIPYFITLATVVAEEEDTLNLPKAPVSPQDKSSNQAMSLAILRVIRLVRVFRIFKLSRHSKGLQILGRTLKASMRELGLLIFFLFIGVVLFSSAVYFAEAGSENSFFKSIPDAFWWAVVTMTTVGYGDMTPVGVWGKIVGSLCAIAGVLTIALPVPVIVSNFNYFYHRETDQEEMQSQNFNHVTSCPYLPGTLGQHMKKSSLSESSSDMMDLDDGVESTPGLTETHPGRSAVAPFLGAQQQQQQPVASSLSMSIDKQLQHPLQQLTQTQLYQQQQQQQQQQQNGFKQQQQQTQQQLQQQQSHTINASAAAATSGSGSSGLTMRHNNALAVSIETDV

`Nc1ccncc1` [4AP, 4-aminopyridine]: the “δ ± s.d. (electric fraction)” value in [1] was 0.41 ± 0.08; in [3] it was 0.41 ± 0.06; in data set [3] (pH 9.1), 0.41 ± 0.05. In data set [2] (24 h post oral administration ref 42), the “parent fraction in plasma” value is recorded as ~ 70%. The “reduction in fluorogenic emission / reaction rate vs. blank” value on CYP2E1 (setting [11]) is “minor reduction in fluorogenic emission”. Further, the pKa – broadly, the pH at which an ionisable group is half protonated – in data set [4] (setting [12]) is more than 9; in [4] (solution of the compound titrated with 0.01 M HCl), 9.19.
Consider `Nc1ccncc1[18F]` [[^18F]3F4AP, [^18F]3-fluoro-4-aminopyridine], for which the “plasma parent fraction (PPF)” value in data set [5] was more than 90%; in data set [8] (anesthetized mice (isoflurane), n = 10 ref 29), 74.8 ± 1.6; in [8] (awake mice, n = 11 ref 29), 17.7 ± 1.7. Further, the “plasma parent fraction (PPF) remaining” value in [2] (humans, 30 min post injection ref 27) is less than 50%. In addition, the pKa in data set [6] was 7.65. Also, the logD – broadly, lipophilicity at a set pH, counting ionised and neutral species – in [7] is reported as 0.41.
Consider `Cc1cncc(F)c1N` [5Me3F4AP, 3-fluoro-5-methylpyridin-4-amine], for which, at CYP2E1 (setting [11]), the “reduction in fluorogenic emission / reaction rate vs. blank” value was “reaction rate between 4AP and 3F4AP”. The IC50 (usually the concentration needed to halve the response being measured) at 60 min at CYP2E1 (human, recombinant CYP2E1 BACULOSOMES (Vivid CYP2E1 screening kit), IC50 for CYP2E1 inhibition, reads at 60 min, three replicates) worked out at 36.2 ± 2.5 µM. Besides, the “CYP2E1-mediated oxidation rate relative to 3F4AP” value on CYP2E1 (kinetic measurement) is “about two times slower than 3F4AP”. The “block of Shaker K+ currents” value in data set [3] (1 mM, pH 6.4, 7.4 and 9.1) is recorded as “efficiently blocks the channels”. For the same compound, the Hill parameter h entry in [3] (Hill fit at 40 mV, all experimental conditions) was “≈ 1”. The “change of IC50 when pH was increased to 9.1” value in [3] (IC50 at 40 mV, Hill equation) is “increased around three-fold”. Further, the “δ ± s.d. (electric fraction)” value in data set [3] (pH 6.4) amounted to 0.39 ± 0.04; in data set [3] (pH 7.4), 0.40 ± 0.02; in [3] (pH 9.1), 0.40 ± 0.04. The IC50 in data set [3] (pH 6.4, Hermann equation, read-out: IC50 (at V=0) ± s.d.) was 118 ± 17 µM; in [3] (pH 7.4, Hermann equation, read-out: IC50 (at V=0) ± s.d.), 161 ± 25 µM; in data set [3] (pH 9.1, Hermann equation, read-out: IC50 (at V=0) ± s.d.), 373 ± 84 µM. For the same compound, in [3] (pH 7.4, IC50 at 40 mV), the “blocking potency compared with related compounds” value was “very similar to that of 4AP and 3F4AP”. Besides, in data set [3] (pH not specified), the “δ value (electric fraction)” value was approximately 0.4. The compound further had a pKa in data set [4] of 7.46 ± 0.01. In data set [9], the “permeation rate relative to 3F4AP” value is “approximately three times faster than 3F4AP”. The Papp at 18 h, 500 µM in data set [9] came out at 8.81 ± 1.83 ×10⁻⁶ cm/s. Further, the log distribution coefficient (logD) in data set [10] (1-octanol/PBS, pH 7.4, pH 7.4, n = 4) turned out to be 0.664 ± 0.005. In [10] (pH 7.4, n = 4), the “logD (octanol/water partition coefficient)” value was determined as 0.66.
With `N[C@@H]1C[C@H]1c1ccccc1` (racemic) [tranylcypromine], at CYP2E1, the “reduction in fluorogenic emission / reaction rate vs. blank” value was “most pronounced reduction in fluorogenic emission”.
On to `Nc1ccncc1F` [3F4AP, 3-fluoro-4-aminopyridine], for which the IC50 in [1] is 122 ± 4 µM; against CYP2E1 (human, IC50 for CYP2E1 inhibition, reads at 60 min, three replicates) it was 15.4 ± 5.1 µM; in data set [3] (IC50 (at V=0) ± s.d.), 159 µM and 65 µM. The “δ ± s.d. (electric fraction)” value in data set [1] was 0.46 ± 0.10; in data set [3], 0.41 ± 0.03; in [3] (pH 9.1) it was 0.52 ± 0.02. Further, the “reduction in fluorogenic emission / reaction rate vs. blank” value at CYP2E1 (setting [11]) is given as “substantial decrease in rate”. The “change of IC50 when pH was increased to 9.1” value in [3] is recorded as “increased around three-fold”. In data set [4], the pKa turned out to be 7.37 ± 0.07. The Papp at 18 h, 500 µM in [9] is 3.11 ± 0.29 ×10⁻⁶ cm/s.
Regarding `Cc1cnccc1N` [3Me4AP, 3-methyl-4AP], the IC50 in [1] was 21 ± 1 µM; in data set [3] (IC50 (at V=0) ± s.d.), 44 µM and 10 µM. The entries for the “δ ± s.d. (electric fraction)” value in data set [1], in data set [3] and in data set [3] (pH 9.1) were 0.43 ± 0.10, 0.28 ± 0.10 and 0.47 ± 0.03, respectively. The “change of IC50 when pH was increased to 9.1” value in data set [3] is on record as “three-fold”. Besides, the pKa in data set [4] (setting [12]) is more than 9.
